Reference: US8716296B2 (Ingenium Pharmaceuticals GmbH, priority 2007, dated 2014)
Structures can show the parent of a compound that is named as a salt.

System: not given
Experiment: not given
Conditions: not given

| Structure (SMILES) | melting point [°C] |
| --- | --- |
| COc1ccc(F)cc1-c1cc(NC(=O)C2CCCCN2)ncn1 (centres unmarked) (as salt: TFA) [Example 37, N-(6-(5-fluoro-2-methoxyphenyl)pyrimidin-4-yl)piperidine-2-carboxamide*TFA] | 122 |
| COc1ccc(F)cc1-c1cc(NC(=O)C2CCC(N)CC2)ncn1 (centres unmarked) (as salt: TFA) [Example 38, 4-amino-N-(6-(5-fluoro-2-methoxyphenyl)pyrimidin-4-yl)cyclohexanecarboxamide*TFA] | 162 |
| COc1ccccc1-c1cc(NC(=O)C2CCCNC2)nc(C)n1 (centres unmarked) [Compound 22A, piperidine-3-carboxylic acid [6-(2-methoxy-phenyl)-2-methyl-pyrimidin-4-yl]-amide] | 229 to 230 |
| CCCN1N=C(C(=O)Nc2cc(-c3cc(F)ccc3OC)ncn2)CCC1=O [Example 11, N-(6-(5-fluoro-2-methoxyphenyl)pyrimidin-4-yl)-1,4,5,6-tetrahydro-6-oxo-1-propylpyridazine-3-carboxamide] | 200 |
| COc1cc(F)ccc1-c1cc(NC(=O)C2CCC(=O)NC2)ncn1 (centres unmarked) [Example 14, N-(6-(4-fluoro-2-methoxyphenyl)pyrimidin-4-yl)-6-oxopiperidine-3-carboxamide] | 148 |
| CCOc1ccccc1-c1cc(NC(=O)C2CCC(=O)NC2)ncn1 (centres unmarked) [Example 15, N-(6-(2-ethoxyphenyl)pyrimidin-4-yl)-6-oxopiperidine-3-carboxamide] | 117 |
| COc1ccc(F)cc1-c1cc(NC(=O)C2CCC(=O)NC2)ncn1 (centres unmarked) [Example 17, N-(6-(5-fluoro-2-methoxyphenyl)pyrimidin-4-yl)-6-oxopiperidine-3-carboxamide] | 245 |
| CCOc1cc(F)ccc1-c1cc(NC(=O)C2CCC(=O)NC2)ncn1 (centres unmarked) [Example 24, N-(6-(2-ethoxy-4-fluorophenyl)pyrimidin-4-yl)-6-oxopiperidine-3-carboxamide] | 222 |
| CC(C)Oc1ccc(F)cc1-c1cc(NC(=O)C2CCC(=O)NC2)ncn1 (centres unmarked) [Example 26, N-(6-(5-fluoro-2-isopropoxyphenyl)pyrimidin-4-yl)-6-oxopiperidine-3-carboxamide] | 236 |
| COc1ccc(F)cc1-c1cc(NC(=O)C2CCCNC2=O)ncn1 (centres unmarked) [Example 41, N-(6-(5-fluoro-2-methoxyphenyl)pyrimidin-4-yl)-2-oxopiperidine-3-carboxamide] | 180 |
| COc1ccc(F)cc1-c1cc(NC(=O)c2cc(C)on2)ncn1 [Example 55, N-(6-(5-fluoro-2-methoxyphenyl)pyrimidin-4-yl)-5-methylisoxazole-3-carboxamide] | 170 |
| CCc1ccc(C(=O)Nc2cc(-c3cc(F)ccc3OC)ncn2)nc1 [Example 56, 5-ethyl-N-(6-(5-fluoro-2-methoxyphenyl)pyrimidin-4-yl)pyridine-2-carboxamide] | 176 |
| CCc1cc(C(=O)Nc2cc(-c3cc(F)ccc3OC)ncn2)no1 [Example 58, 5-ethyl-N-(6-(5-fluoro-2-methoxyphenyl)pyrimidin-4-yl)isoxazole-3-carboxamide] | 175 |
| COc1ccc(F)cc1-c1cc(NC(=O)c2cnn3cc(C)cnc23)ncn1 [Example 59, N-(6-(5-fluoro-2-methoxyphenyl)pyrimidin-4-yl)-6-methylpyrazolo[1,5-a]pyrimidine-3-carboxamide] | 265 |
| COc1ccc(F)cc1-c1cc(NC(=O)Cc2cc(F)c(F)cc2F)ncn1 [Example 62, N-(6-(5-fluoro-2-methoxyphenyl)pyrimidin-4-yl)-2-(2,4,5-trifluorophenyl)acetamide] | 208 |

Further lines, results first:

| melting point [°C] | Structure (SMILES) |
| --- | --- |
| 163 to 165 | COc1ccccc1-c1cc(NC(=O)[C@H]2CCCNC2)ncn1 [Compound 17A, (S)-Piperidine-3-carboxylic acid [6-(2-methoxy-phenyl)-pyrimidin-4-yl]-amide] |
| 210 to 213 | COc1ccccc1-c1cc(NC(=O)[C@@H]2CCCNC2)ncn1 [Compound 18A, (R)-Piperidine-3-carboxylic acid [6-(2-methoxy-phenyl)-pyrimidin-4-yl]-amide] |
| 190 | COc1ccc(F)cc1-c1cc(NC(=O)C2(C(N)=O)CC2)ncn1 [Example 10, N-(6-(5-fluoro-2-methoxyphenyl)pyrimidin-4-yl)cyclopropane-1,1-dicarboxamide] |
| 208 | CCOc1ccc(F)cc1-c1cc(NC(=O)C2CCC(=O)NC2)ncn1 (centres unmarked) [Example 16, N-(6-(2-ethoxy-5-fluorophenyl)pyrimidin-4-yl)-6-oxopiperidine-3-carboxamide] |
| 222 | COc1ccc(F)cc1-c1cc(NC(=O)C2CNC(=O)C2)ncn1 (centres unmarked) [Example 18, N-(6-(5-fluoro-2-methoxyphenyl)pyrimidin-4-yl)-5-oxopyrrolidine-3-carboxamide] |
| 160 | COc1ccc(F)cc1-c1cc(NC(=O)C2CC(=O)NC(=O)C2)ncn1 [Example 19, N-(6-(5-fluoro-2-methoxyphenyl)pyrimidin-4-yl)-2,6-dioxopiperidine-4-carboxamide] |
| 105 | CC(C)Oc1cc(F)ccc1-c1cc(NC(=O)C2CCC(=O)NC2)ncn1 (centres unmarked) [Example 25, N-(6-(4-fluoro-2-isopropoxyphenyl)pyrimidin-4-yl)-6-oxopiperidine-3-carboxamide] |
| 155 | COc1ccc(F)cc1-c1cc(NC(=O)C2CCOCC2)ncn1 [Example 39, N-(6-(5-fluoro-2-methoxyphenyl)pyrimidin-4-yl)-tetrahydro-2H-pyran-4-carboxamide] |
| 225 | COc1ccc(F)cc1-c1cc(NC(=O)C2CCNC(=O)C2)ncn1 (centres unmarked) [Example 40, N-(6-(5-fluoro-2-methoxyphenyl)pyrimidin-4-yl)-2-oxopiperidine-4-carboxamide] |
| 272 | COc1ccc(F)cc1-c1cc(NC(=O)[C@H]2CCCC[C@H]2N)ncn1.Cl [Example 46, (1S,2R)-2-amino-N-(6-(5-fluoro-2-methoxyphenyl)pyrimidin-4-yl)cyclohexanecarboxamide*HCl] |
| 276 | COc1ccc(F)cc1-c1cc(NC(=O)c2cc(=O)[nH]c3ccccc23)ncn1 [Example 60, N-(6-(5-fluoro-2-methoxyphenyl)pyrimidin-4-yl)-1,2-dihydro-2-oxoquinoline-4-carboxamide] |
| 146 | COc1ccc(F)cc1-c1cc(NC(=O)C(=O)c2ccccc2)ncn1 [Example 61, N-(6-(5-fluoro-2-methoxyphenyl)pyrimidin-4-yl)-2-oxo-2-phenylacetamide] |

System: LPS induced THP-1 macrophages
Experiment: In vitro THP-1 assay, model of cytokine inhibition
Format: cell-based, human
Conditions: differentiated THP-1 cells, 60 min pre-incubation, LPS 4-48 h, ELISA, versus vehicle (DMSO)
Method: The human THP-1 cell line can be utilized as an in vitro model of cytokine expression as mediated by Lipopolysaccharide (LPS) or Tumor Necrosis Factorα [TNFα].
Monocytic THP-1 cells (ATCC; TIB-202) can be differentiated into macrophage-like cells expressing pro-inflammatory cytokines like TNFα, IL6 and IL1β upon induction with LPS or by TNFα (autocrine induction) itself.
THP-1 cells are grown in modified RPMI-1640 medium (ATCC, Cat. No. 30-2001) supplemented with 10% FCS and 1% Pen/Strep. For cytokine inhibition assays, cells are seeded at a density of 5×10^5 cells/ml into 6-well plates in standard growth medium supplemented with 100 ng/ml PMA (Sigma, P1585) to induce differentiation into macrophage-like cells. After 24 hours, the medium is replaced with standard growth medium (without PMA) and the cells are incubated for another 48 hours to complete differentiation.
After 72 h of differentiation, the medium is replaced with serum free growth medium, and CDK-inhibiting compounds as well as reference compounds such as positive and negative controls, each dissolved in DMSO are added at concentrations ranging from 0.5 to 5 μM (final concentration of DMSO in the well is 0.1%). Cells are incubated for 60 min with compounds prior to stimulation with 100 ng/ml LPS (Sigma, L2630) for another 4-48 hours. Supernatants are collected and assayed immediately for cytokine expression, e.g. for TNFα, IL-6 and IL-1b using commercially available sandwich ELISA assays (eBioscience, Cat. No 88-7346, 88-7066, 88-7010) or kept frozen at […] until evaluation.
Concentrations of TNFα, IL6 and IL1β within the cell culture supernatants are measured by using commercial ELISA Kits (eBioscience) according to the manufacturers instructions.
CDK-inhibitory compounds #1A, 16A, 20A, and 25A were administered to differentiated THP-1 cells in triplicates as described above (see section 2.). After 60 min of pre-incubation with test or reference compound (SB203580, a p38 inhibitor and BMS345541, an IKK-inhibitor) alone, cells were stimulated with LPS. After incubation for 4-48 h, supernatants were collected and ELISA based determinations of cytokine supernatant concentrations were performed as described in section 3, supra.

| Structure (SMILES) | IL6 protein concentration in the cell supernatant | TNFα protein concentration in the cell supernatant |
| --- | --- | --- |
| COc1ccccc1-c1cc(NC(=O)C(C)(C)C)ncn1 [Compound 25A, N-[6-(2-methoxy-phenyl)-pyrimidin-4-yl]-2,2-dimethyl-propionamide] | significant inhibitory effect | significant inhibitory effect |
